In patent publication US6924099B1, “Biomarkers and assays for carcinogenesis” (G.D. Searle & Co., priority 1999, dated 2005):

Assays:
[1] = system: rat liver mRNA; experiment: RT-PCR of mRNAs for three phenobarbital-induced genes; settings: oral gavage 200 mg/kg, 88 days or 5 days
Protocol: Specifically, rats were treated by oral gavage for 88 days in the 13 week experiment, or for 5 days with 200 mg/kg phenobarbital or control vehicle.

[2] = system: cellular mRNAs in rat liver; experiment: AFLP-based Transcript Imaging of liver mRNAs of phenobarbital-treated rats; format: in vivo; settings: for Fold Change AFLP: 13 weeks phenobarbital 200 mg/kg oral gavage
Protocol: Rats were treated with phenobarbital for thirteen weeks or in a separate experiment, for 5 days. Liver mRNAs were extracted and probed for those mRNAs specifically altered by phenobarbital treatment by comparing with mRNA expression in untreated rats. The relative abundance of cellular mRNAs in rat liver was determined using PE GenScope's AFLP (Amplified Fragment Length Polymorphism)-based Transcript Imaging technology. The mRNA is converted into double-stranded cDNA, which is then cut with restriction enzymes. The resulting restriction fragments are tagged with specific adapters of known sequences, which allows for subsequent amplification of the fragments under highly stringent conditions. Similar technology has been used in plants (Money. T. et al., Nucleic Acids Res. 24:2616-2617 (1996), incorporated by reference in its entirety).

[3] = system: rat liver mRNA; experiment: Validation of AFLP biomarkers by rt-PCR (Taqman) in liver of phenobarbital-treated rats; format: in vivo; settings: for Fold Change 2-week: 2 weeks phenobarbital; for Fold Change 13-week: 13 weeks phenobarbital 200 mg/kg oral gavage
Protocol: After AFLP experiments were conducted, and results analyzed, the effects of phenobarbital on the expression of several biomarkers were validated. RNA was extracted from the same liver samples used in the AFLP study, in addition to liver samples from rats treated with phenobarbital for 2-weeks, followed by reverse transcription reactions to generate cDNA, followed by PCR, using Taqman technology. The genes analyzed for phenobarbital-induced alterations, and the corresponding AFLP sequence numbers are listed in Table 5, and a graph and a chart of the actual results are in Table 6 and FIG. 1.
Eleven of the 17 (65%) genes analyzed were also determined to be differentially expressed using rt-PCR. However, this is based on comparisons at the same timepoint (13 weeks). When the rt-PCR analyses performed on the 2 week samples are considered, another marker (S-033) is found to be differentially expressed. Theoretically, differences in sensitivity and or specificity between the two techniques could be accounted for these minor discrepancies. However, S-033 is an example of how AFLP has identified biomarkers which are optimal for carcinogen detection at timepoints other than 13 weeks.

[4] = SEQ NO. 4 (Rat aldehyde dehydrogenase) mRNA
[5] = SEQ NO. 10 (Rat vitamin D-binding protein) mRNA
[6] = SEQ NO. 25 (Rat cytochrome B) mRNA
[7] = SEQ NO. 34 (Rat liver catalase) mRNA
[8] = SEQ NO. 38 (Rat alpha-2u globulin) mRNA
[9] = SEQ NO. 40 (Rat NADP-dep.isocitrate dehydrogenase) mRNA
[10] = SEQ NO. 42 (Mouse JAK1 (protein tyrosine kinase)) mRNA
[11] = SEQ NO. 46 (Rat cathepsin B) mRNA
[12] = SEQ NO. 52 ((s)-2-hydroxy acid oxidase) mRNA
[13] = SEQ NO. 92 (Rat nicotinic receptor alpha 7 subunit) mRNA
[14] = SEQ NO. 114 (Rat delta-aminolevulinate synthase) mRNA
[15] = SEQ NO. 116 (Estrogen sulfotransferase) mRNA
[16] = SEQ NO. 129 (Glutathione S-transferase) mRNA
[17] = SEQ NO. 230 (Rat carboxylesterase) mRNA

CCC1(c2ccccc2)C(=O)NC(=O)NC1=O [phenobarbital]
Average expression level of P450 2B1 mRNA as compared to control rats [1]: substantial induction | Down-regulation of the sequences of Table 3 (SEQ NO 419-457) ([2]; 5 weeks of treatment): at least 1.7 fold | Up-regulation of the sequences of Table 4 (SEQ NO 458-489) ([2]; 5 weeks of treatment): at least 1.7 fold | Down-regulation of the sequences of Table 1 (SEQ NO 275-318) ([2]; 13 weeks of treatment): at least 1.7 fold | Up-regulation of the sequences of Table 2 (SEQ NO 319-418) ([2]; 13 weeks of treatment): at least 1.7 fold | Fold Change AFLP ([2]; SEQ NO. 3 (Rat P-450) mRNA): 2.3 fold | Fold Change AFLP [2, 4]: 8.2 fold | Fold Change AFLP ([2]; SEQ NO. 6 (Rat UDPGT1.1) mRNA): 4.6 fold | Fold Change AFLP [2, 5]: 1.7 fold | Fold Change AFLP [2, 6]: 4.2 fold | Fold Change AFLP [2, 7]: 16 fold | Fold Change AFLP [2, 8]: 0.04 fold | Fold Change AFLP [2, 9]: 2.5 fold | Fold Change AFLP [2, 10]: 1.9 fold | Fold Change AFLP [2, 11]: 2.3 fold | Fold Change AFLP [2, 12]: 0.3 fold | Fold Change AFLP [2, 13]: 6.3 fold | Fold Change AFLP [2, 14]: 3.8 fold | Fold Change AFLP [2, 15]: 0.32 fold | Fold Change AFLP [2, 16]: 4 fold | Fold Change AFLP ([2]; SEQ NO. 179 (Rat UDPGT) mRNA): 10.5 fold | Fold Change AFLP [2, 17]: 1.3 fold | Fold Change 2-week ([3]; SEQ NO. 3 (Rat P-450) mRNA): 1.34 fold | Fold Change 13-week ([3]; SEQ NO. 3 (Rat P-450) mRNA): 1.85 fold | Fold Change 2-week [3, 4]: 16.36 fold | Fold Change 13-week [3, 4]: 12.88 fold | Fold Change 2-week ([3]; SEQ NO. 6 (Rat UDPGT1.1) mRNA): 0.93 fold | Fold Change 13-week ([3]; SEQ NO. 6 (Rat UDPGT1.1) mRNA): 1.5 fold | Fold Change 2-week [3, 5]: 0.66 fold | Fold Change 13-week [3, 5]: 0.79 fold | Fold Change 2-week [3, 6]: 1.85 fold | Fold Change 13-week [3, 6]: 0.75 fold | Fold Change 2-week [3, 7]: 0.79 fold | Fold Change 13-week [3, 7]: 0.45 fold | Fold Change 2-week [3, 8]: 0.35 fold | Fold Change 13-week [3, 8]: 0.03 fold | Fold Change 2-week [3, 9]: 0.88 fold | Fold Change 13-week [3, 9]: 1.14 fold | Fold Change 2-week [3, 10]: 0.8 fold | Fold Change 13-week [3, 10]: 0.83 fold | Fold Change 2-week [3, 11]: 0.87 fold | Fold Change 13-week [3, 11]: 1.41 fold | Fold Change 2-week [3, 12]: 0.31 fold | Fold Change 13-week [3, 12]: 0.09 fold | Fold Change 2-week [3, 13]: 0.45 fold | Fold Change 13-week [3, 13]: 0.72 fold | Fold Change 2-week [3, 14]: 1.22 fold | Fold Change 13-week [3, 14]: 4.03 fold | Fold Change 2-week [3, 15]: 0.81 fold | Fold Change 13-week [3, 15]: 0.15 fold | Fold Change 2-week [3, 16]: 2.52 fold | Fold Change 13-week [3, 16]: 4.03 fold | Fold Change 2-week ([3]; SEQ NO. 179 (Rat UDPGT) mRNA): 14.11 fold | Fold Change 13-week ([3]; SEQ NO. 179 (Rat UDPGT) mRNA): 9.05 fold | Fold Change 2-week [3, 17]: 4.24 fold | Fold Change 13-week [3, 17]: 5.74 fold
